According to US12691076B2, “Methods and compositions related to extracellular vesicles” (priority 2020, dated 2026):
Read-outs that look alike come from different tables or passages of the source.

Assay: Plasma and tissue concentrations of efavirenz after tail vein injection
Format: in vivo, CD-1 mice
Details: mice, 5 mg/kg tail vein; for concentration at […]: 0.25 h
Method: The efavirenz-loaded apical AVT-EVs were subsequently injected via tail vein into CD-1 mice at a dose of 5 mg/kg and compared to a control injection of 5 mg/kg of conventional efavirenz (dissolved with DMSO). Plasma and tissue concentrations were determined by LC-MS/MS.

[1] = CD-1, mouse, liver, intravenous, LLOQ 35 ng/g, read-out: Efavirenz concentration, Liver
[2] = CD-1, mouse, lung, intravenous, LLOQ 35 ng/g, read-out: Efavirenz concentration, Lungs
[3] = CD-1, mouse, plasma, intravenous, read-out: Efavirenz concentration, Plasma

concentration at 0.083 h [1]: 7590 ng/g
concentration at […] [1]: 5420 ng/g
concentration at 0.5 h [1]: 5230 ng/g
concentration at 1 h [1]: 176 ng/g
concentration at 2 h [1]: 135 ng/g
concentration at 3 h (CD-1, mouse, liver, intravenous, 3 h, LLOQ 35 ng/g, read-out: Efavirenz concentration, Liver): 136 ng/g
concentration at 4 h (CD-1, mouse, liver, intravenous, 4 h, LLOQ 35 ng/g, read-out: Efavirenz concentration, Liver): 137 ng/g
concentration at 6 h (CD-1, mouse, liver, intravenous, 6 h, LLOQ 35 ng/g, read-out: Efavirenz concentration, Liver): 115 ng/g
concentration at 0.083 h [2]: 2140 ng/g
concentration at […] [2]: 802 ng/g
concentration at 0.5 h [2]: 830 ng/g
concentration at 1 h [2]: 273 ng/g
concentration at 0.083 h [3]: 4100 ng/mL
concentration at […] [3]: 2820 ng/mL
concentration at 0.5 h [3]: 1620 ng/mL
concentration at 1 h [3]: 1560 ng/mL
concentration at 2 h [3]: 724 ng/mL
concentration at 3 h (CD-1, mouse, plasma, intravenous, 3 h, read-out: Efavirenz concentration, Plasma): 396 ng/mL
concentration at 4 h (CD-1, mouse, plasma, intravenous, 4 h, read-out: Efavirenz concentration, Plasma): 103 ng/mL
concentration at 6 h (CD-1, mouse, plasma, intravenous, 6 h, read-out: Efavirenz concentration, Plasma): 64.4 ng/mL
concentration at 8 h (CD-1, mouse, plasma, intravenous, 8 h): 33.1 ng/mL
AUC(0-t) (CD-1, mouse, plasma, intravenous, read-out: area under the plasma-time concentration curve (AUC0-8h) of efavirenz): 4520 ng·h/mL
AUC0-8h for efavirenz in the lungs: 0.95 µg·h/g
lung:liver tissue AUC0-8h ratio: 0.19
overall exposure of the liver relative to the lungs: approximately 5 times
Efavirenz concentration, Lungs (3 h, LLOQ 35 ng/g): <LLOQ
Efavirenz concentration, Lungs (4 h, LLOQ 35 ng/g): <LLOQ
Efavirenz concentration, Lungs (6 h, LLOQ 35 ng/g): <LLOQ
Efavirenz concentration, Liver (8 h, LLOQ 35 ng/g): <LLOQ
Efavirenz concentration, Lungs (8 h, LLOQ 35 ng/g): <LLOQ
SMILES: O=C1Nc2ccc(Cl)cc2[C@@](C#CC2CC2)(C(F)(F)F)O1 [Efavirenz in DMSO, efavirenz]
